Laboratory results taken from paper PMC7703542 (Proceedings of the National Academy of Sciences of the …, 2020).

Target: PdF1 γCC (PdF1) (Paracoccus denitrificans, UniProt A1B8N8+A1B8P0)
Assay: single-molecule rotation assay, Mg-ADP inhibited pauses
Assay type: biochemical
Conditions: 1 µM ADP with 1 µM ATP, no ADP-trapping system, 0.1% LDAO

Chain of PdF1 γCC (PdF1) (A1B8P0 whole entry): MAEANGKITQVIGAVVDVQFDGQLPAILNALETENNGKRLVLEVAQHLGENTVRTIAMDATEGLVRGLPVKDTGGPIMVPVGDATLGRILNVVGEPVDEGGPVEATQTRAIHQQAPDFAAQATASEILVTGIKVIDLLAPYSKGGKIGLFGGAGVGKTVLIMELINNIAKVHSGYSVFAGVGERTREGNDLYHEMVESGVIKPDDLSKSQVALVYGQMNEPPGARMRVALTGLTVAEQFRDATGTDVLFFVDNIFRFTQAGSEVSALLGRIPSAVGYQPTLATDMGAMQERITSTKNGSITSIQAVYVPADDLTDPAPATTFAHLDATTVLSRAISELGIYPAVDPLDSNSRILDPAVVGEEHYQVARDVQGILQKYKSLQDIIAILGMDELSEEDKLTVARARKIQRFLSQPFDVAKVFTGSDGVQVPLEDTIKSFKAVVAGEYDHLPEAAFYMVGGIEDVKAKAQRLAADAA
Chain of PdF1 γCC (PdF1) (A1B8N8 whole entry): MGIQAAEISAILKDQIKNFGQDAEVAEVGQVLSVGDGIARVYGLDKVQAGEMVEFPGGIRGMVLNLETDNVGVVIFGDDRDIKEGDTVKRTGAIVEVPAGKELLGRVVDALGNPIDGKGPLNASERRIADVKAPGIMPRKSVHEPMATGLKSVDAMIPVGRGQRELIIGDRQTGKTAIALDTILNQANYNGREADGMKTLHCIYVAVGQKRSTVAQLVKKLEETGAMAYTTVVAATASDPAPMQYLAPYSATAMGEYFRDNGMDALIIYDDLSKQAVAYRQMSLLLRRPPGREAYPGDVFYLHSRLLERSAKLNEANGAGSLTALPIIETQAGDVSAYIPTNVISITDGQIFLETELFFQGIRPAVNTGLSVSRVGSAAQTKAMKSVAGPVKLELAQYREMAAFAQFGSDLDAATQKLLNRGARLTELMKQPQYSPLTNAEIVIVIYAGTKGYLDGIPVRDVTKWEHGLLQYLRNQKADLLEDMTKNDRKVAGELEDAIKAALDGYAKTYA
Chain of PdF1 γCC (PdF1) (A1B8N9 whole entry Q115C/D214C partner): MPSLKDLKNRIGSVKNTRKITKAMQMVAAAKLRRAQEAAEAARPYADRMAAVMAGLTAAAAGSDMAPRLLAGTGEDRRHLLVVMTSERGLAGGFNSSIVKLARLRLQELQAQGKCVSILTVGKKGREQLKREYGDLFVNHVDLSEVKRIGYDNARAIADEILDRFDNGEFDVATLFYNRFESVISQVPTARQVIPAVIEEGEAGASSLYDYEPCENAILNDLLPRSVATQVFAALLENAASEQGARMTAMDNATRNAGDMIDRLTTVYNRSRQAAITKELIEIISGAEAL
Chain of PdF1 γCC (PdF1) (A1B8N7 whole entry partner): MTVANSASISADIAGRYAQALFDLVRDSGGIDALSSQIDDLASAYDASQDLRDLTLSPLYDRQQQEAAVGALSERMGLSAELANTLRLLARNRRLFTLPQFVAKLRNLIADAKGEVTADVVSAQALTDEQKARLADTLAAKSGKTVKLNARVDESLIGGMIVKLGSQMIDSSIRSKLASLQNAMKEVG
Chain of PdF1 γCC (PdF1) (A1B8P1 whole entry partner): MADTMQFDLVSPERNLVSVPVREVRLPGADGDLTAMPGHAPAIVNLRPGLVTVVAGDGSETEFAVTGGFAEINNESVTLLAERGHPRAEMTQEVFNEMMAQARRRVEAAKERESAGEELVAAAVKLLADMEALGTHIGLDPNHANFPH

## Nc1ncnc2c1ncn2[C@@H]1O[C@H](COP(=O)(O)OP(=O)(O)O)[C@@H](O)[C@H]1O [ADP]
  single-molecule rotation assay, Mg-ADP inhibited pauses: supporting the conclusion that they are a result of Mg-ADP inhibition
